Assay results published in patent publication US4886793A, “Penem derivatives” (Farmitalia Carlo Erba, S.r.l., priority 1986, dated 1989).

What was measured:
[1] = Pharmacokinetics in rat; settings: in vivo
Source text: (§1) In vivo data for (5R,6S)-6-[(1R)-hydroxy ethyl]-2-[4-(1-pyridinio)methylphenyl]oxymethylpenem-3-carboxylate (example 1, Compound 5,FCE 24386)

[2] = system: Escherichia coli G II; assay: Experimental infection in mice, Escherichia coli G II; format: in vivo, Escherichia coli G II (infected mice); settings: intraperitoneal infection, 3 × LD50 challenge, treatments at 30, 90 and 360 minutes after infection
Protocol: (§2) ^1 Intraperitoneal infection in mice with a 3 × LD50
(§3) challenge; treatments at 30, 90 and 360 minutes after infection.

[3] = system: Staphilococcus aureus Smith; assay: Experimental infection in mice, Staphilococcus aureus Smith; format: in vivo, Staphilococcus aureus Smith (infected mice); settings: Mus musculus, intraperitoneal infection, 3 × LD50 challenge, treatments at 30, 90 and 360 minutes after infection
Protocol: as §2, §3

[4] = Pharmacokinetics in mouse; settings: in vivo
Source text: as §1

Structure (SMILES): C[C@@H](O)[C@H]1C(=O)N2C(C(=O)[O-])=C(COc3ccc(C[n+]4ccccc4)cc3)S[C@H]12 [Compound 5, (5R,6S)-6-[(1R)-hydroxyethyl]-2-[4-(1-pyridinio)methylphenyl]oxymethylpenem-3-carboxylate]
- AUC [1]: 103000 ng·h/mL
- half-life ([1]; read-out: t 1/2β): 28 min
- ED50 [2]: 1.55 mg/kg
- ED50 [3]: < 0.032 mg/kg
- Fa ([4]; sc, Mouse, s.c., read-out: % Absorption s.c.): 100%
- AUC ([4]; mouse): 56000 ng·h/mL
- half-life ([4]; mouse, read-out: t 1/2β): 27 min
